Reference: PMC4940736 (Scientific Reports, 2016)

Legend:
[1] = target: EBOV NP (amino acids 36–351) (Zaire ebolavirus, UniProt P18272); type: binding, Ebola virus
[2] = target: MARV NP (amino acids 19–370) (Lake Victoria marburgvirus, UniProt P27588); type: binding, Marburg virus
Chain of MARV NP (amino acids 19–370) (P27588 19-370 limits assumed): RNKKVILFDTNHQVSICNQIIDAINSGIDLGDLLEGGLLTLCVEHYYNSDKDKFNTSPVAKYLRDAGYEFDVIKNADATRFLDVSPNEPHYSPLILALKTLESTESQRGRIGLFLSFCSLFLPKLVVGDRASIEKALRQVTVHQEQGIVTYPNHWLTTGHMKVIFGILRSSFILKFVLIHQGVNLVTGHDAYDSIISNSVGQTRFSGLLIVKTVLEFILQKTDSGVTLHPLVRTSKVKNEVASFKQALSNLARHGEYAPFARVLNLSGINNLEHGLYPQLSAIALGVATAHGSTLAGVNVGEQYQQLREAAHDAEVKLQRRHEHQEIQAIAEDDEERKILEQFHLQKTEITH

Chain of EBOV NP (amino acids 36–351) (P18272 36-351 limits assumed): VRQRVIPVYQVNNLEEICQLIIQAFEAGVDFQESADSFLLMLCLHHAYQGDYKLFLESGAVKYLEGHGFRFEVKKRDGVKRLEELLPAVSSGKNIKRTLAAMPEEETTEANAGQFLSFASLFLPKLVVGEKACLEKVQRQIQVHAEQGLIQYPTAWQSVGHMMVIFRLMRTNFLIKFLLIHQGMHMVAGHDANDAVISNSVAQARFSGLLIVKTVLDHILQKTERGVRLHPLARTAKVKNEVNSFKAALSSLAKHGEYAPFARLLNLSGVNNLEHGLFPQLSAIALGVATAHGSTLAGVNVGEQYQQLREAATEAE

With `O=c1cc(-c2ccc(O)cc2)oc2c([C@@H]3OC[C@H](O)[C@H](O)[C@H]3O)c(O)c([C@@H]3O[C@H](CO)[C@@H](O)[C@H](O)[C@H]3O)c(O)c12` [GC3, Schaftoside] the “S/N AVE” value [1] was 1.11, the VIP [1] was 0.60 and the “S/N AVE” value [2] was 1.62. It also gave a VIP [2] of 1.60.
`O=C(/C=C/c1ccc(O)cc1)c1ccc(O[C@@H]2O[C@H](CO)[C@@H](O)[C@H](O)[C@H]2O)cc1O` [GC4, Neoisoliquiritin] was tested, and the “S/N AVE” value [1] was 1.58, the VIP [1] was 1.18 and the “S/N AVE” value [2] was 1.72. The VIP [2] was 1.31.
`COc1ccc(-c2coc3cc(O[C@@H]4O[C@H](CO)[C@@H](O)[C@H](O)[C@H]4O)ccc3c2=O)cc1` [GC5, Ononin] was tested, and the “S/N AVE” value [1] was 1.46, the VIP [1] was 1.09 and the “S/N AVE” value [2] was 1.76. It also gave a VIP [2] of 1.28.
For `CC1(C)[C@@H](O[C@H]2O[C@H](C(=O)O)[C@@H](O)[C@H](O)[C@H]2O[C@@H]2O[C@H](C(=O)O)[C@@H](O)[C@H](O)[C@H]2O)CC[C@]2(C)[C@H]3C(=O)C=C4[C@@H]5C[C@@](C)(C(=O)O)CC[C@]5(C)CC[C@@]4(C)[C@]3(C)CC[C@@H]12` [GC6, Glycyrrhizin], the “S/N AVE” value [1] was 1.15, the VIP [1] was 5.23 and the “putative ligand in licorice crude extract screen” value (from here on “putative ligand”) [1] was “did not observe its direct binding”. For the same compound, the “S/N AVE” value [2] was 0.96, the VIP [2] was 1.39 and the “putative ligand” value [2] was “did not observe its direct binding”.
In the case of `O=C1C[C@@H](c2ccc(O)cc2)Oc2cc(O)ccc21` [GC8, Liquiritigenin], the “S/N AVE” value [1] is reported as 1.04, the VIP [1] is reported as 0.47 and the “S/N AVE” value [2] is reported as 1.50. It also gave a VIP [2] of 0.65.
With `COc1ccc(-c2coc3cc(O)ccc3c2=O)cc1O` [GC9, Calycosin] the “S/N AVE” value [1] was 1.01, the VIP [1] was 0.14 and the “S/N AVE” value [2] was 1.36. It also gave a VIP [2] of 0.16.
For `C=CC(C)(C)c1cc(/C=C/C(=O)c2ccc(O)cc2)c(OC)cc1O` [GC13, Licochalcone A], the “S/N AVE” value [1] was 5.17, the VIP [1] was 2.27 and the “putative ligand” value [1] was “met the aforementioned thresholds”. The “S/N AVE” value [2] was 6.85, the VIP [2] was 2.03 and the “putative ligand” value [2] was “met the aforementioned thresholds”.
With `O=C(/C=C/c1ccc(O[C@@H]2O[C@H](CO)[C@@H](O)[C@H](O)[C@H]2O)cc1)c1ccc(O)cc1O` [GC14, Isoliquiritin] the “S/N AVE” value [1] was 1.22, the VIP [1] was 1.29 and the “S/N AVE” value [2] was 1.73. The VIP [2] was 2.12.
With glycyrrhetinic acid [GC7/10] the VIP [1] was 1.44, the “putative ligand” value [1] was “met the aforementioned thresholds” and the “putative ligand” value [2] was “met the aforementioned thresholds”.
